Where a SMILES comes first, the peptide text is derived from it. [ ]: non-standard residue; d: D form. pGlu = O=C1CC[C@@H](C(=O)O)N1
Assays:
[1] = In vitro antioxidant activity (DPPH test); format: biochemical
Text: The antioxidant (radical-scavenger) activity was studied by means of the DPPH in vitro test and with the paracetamol in vivo test.

[2] = tested on: elimination of phenol red from the respiratory fluid; assay: Mucosecretolytic activity (phenol red test in the mouse); format: in vivo; details: 100 mg/kg os; for Mean secretion (total μg) (mean ± S.E.): controls 2.73 ± 0.18, **p <0.01 Dunnett's "t" test
[3] = tested on: paracetamol acute toxicity; assay: In vivo antioxidant activity (paracetamol test); design: species or system Male Crl: CD-1 (ICR) BR mice; details: 100 mg/kg os 30 minutes before and 5 hours after paracetamol 1000 mg/kg i.p., 6 days; for Mortality (%): controls 90%
Description: The in vivo antioxidant (radical scavenger) activity was evidenced by means of the protection test against paracetamol acute toxicity. Male Crl: CD-1 (ICR) BR mice, weighing 25-30 g, were treated intraperitoneally with 1000 mg/kg (1 ml/kg) of paracetamol dissolved in 20% DMF in water immediately before the administration.
In vivo antioxidant activity (paracetamol test)

[4] = known from EP-A-332,946; in words; cited from earlier work

Row | SMILES | Variat. (%) of absorbancies ([1]; 5.10^-5 M, 50 µM) [%] | Variat. (%) of absorbancies ([1]; 10^-4 M, 100 µM) [%] | Variat. (%) of absorbancies ([1]; 10^-5 M, 10 µM) [%] | Variat. (%) of mean secretion vs controls [2] | Mean secretion (total μg) (mean ± S.E.) [2] [µg] | Mortality, Variat. vs controls (%) [3] [%] | Mortality (%) [3] [%] | anticataractogenic activity [4]
1 | COC(=O)[C@H](CS)NC(=O)[C@@H]1CCC(=O)N1 [Ic, N-(5-oxo-L-prolyl)-L-cysteine methyl ester] ([pGlu]-Cys-OMe) | -49.1 | -82.7 | -10.4 | +143.2% | 6.64 ± 1.00 | 45.4 | 50 | 
2 | COC(=O)[C@H](CS)NC(=O)[C@@H]1CCC(=S)N1 [Id, N-(5-thioxo-L-prolyl)-L-cysteine methyl ester] | -51.8 | -79.1 | -14.3 | +97.4% | 5.39 ± 0.59 | 45.4 | 50 | 
3 | O=C(O)[C@H](CS)NC(=O)[C@@H]1CCC(=S)N1 [Ie, N-(5-thioxo-L-prolyl)-L-cysteine] | -51.8 | -83.1 | -14.3 | +112.8% | 5.81 ± 0.62 | 66.7 | 30 | 
4 | O=C1O[C@H]([C@@H](O)CO)C(O)=C1O [L-ascorbic acid] | -49.5 | -86.0 | -17.6 |  |  |  |  | 
5 | N[C@@H](CS)C(=O)O [L-cysteine] | -56.5 | -83.7 | -10.9 |  |  |  |  | 
6 | O=C1CC[C@@H](C(=O)N[C@@H](CS)C(=O)O)N1 [N-(5-oxo-L-prolyl)-L-cysteine] ([pGlu]-Cys-OH) | -49.6 | -88.1 | -29.6 | +92.7% | 5.26 ± 0.25 | 66.7 | 30 | known to have anticataractogenic activity
7 | CC(=O)N[C@@H](CS)C(=O)O [N-acetyl-L-cysteine] | -47.9 | -86.3 | -10.4 | +61.9% | 4.42 ± 0.83 | 45.4 | 50 | 
